“Also recorded” adds a separate entry of the source.
What was measured:
Hap1 cells = assay: Hi-Culfite on Hap1 cells treated with 5-azacytidine (methylation inhibition experiment); type: cell-based; details: for CpG C->T conversion: DMSO control 37.66%
Description: (§1) Hi-Culfite library construction (FIG. 1A) followed the initial steps of an in situ Hi-C protocol (8). One million cells were crosslinked with formaldehyde; chromatin was digested with a restriction enzyme; and the overhangs were filled in, incorporating a biotinylated nucleotide to mark the fragment ends after ligation. The DNA was then purified and sheared. Next, Applicants performed bisulfite conversion, which converted unmethylated cytosine residues into uracil but left methylated cytosine residues intact. Applicants captured the resulting single-stranded, biotin-marked ligation products on streptavidin beads. Finally, Applicants added adapters to the 3′ end, synthesized the second strand by primer extension, ligated adapters to the 3′ end of the 2nd strand, and PCR amplified with indexed primers.
(§2) Cell Culture: All commercial cell lines were cultured following vendors' recommendations to about 80% confluency before they were harvested and cross-linked in fresh complete medium. For methylation inhibition experiments, cultures of GM12878 (Coriell Institute) and Hap1 (Horizon) were grown for 8 days in medium supplemented with DMSO without drug or with 1 μM or 5 μM 5-azacytidine (Sigma Aldrich) solubilized in DMSO, refreshing the medium/drug every two days.
(§3) Library Construction: Hi-C libraries were prepared using the protocol described (8) Briefly, one million cells were crosslinked with 1% formaldehyde for 10 minutes at room temperature and then quenched with 0.2 M glycine solution. Cells were lysed and nuclei permeabilized with 0.5% SDS for 10 minutes at 62° C. Chromatin was digested with 100 U of MboI restriction enzyme (NEB). Ends of the restriction fragments were filled-in and labeled with a biotinylated nucleotide and then ligated. Nuclei were pelleted, proteins were digested with proteinase K, and crosslinks were reversed by heating at 68° C. overnight. DNA was sheared in a Covaris focused ultrasonicator to a length of 300-500 bp. Size-selected DNA was split for processing with two workflows—10% of the material was used for preparation of a regular Hi-C library (unconverted control) and 90% of the DNA was used for Hi-Culfite library construction. Hi-C libraries were finished by enriching for biotinylated ligation junctions through binding to T1 streptavidin beads (Thermo Fisher) and preparing the library for Illumina sequencing performing the end-repair, A-tailing and adapter ligation steps with DNA attached to the beads. Libraries were amplified directly off the beads and purified for subsequent Illumina sequencing.
DNA for Hi-Culfite was first treated with sodium bisulfite using EpiTect Fast bisulfite conversion kit (Qiagen) following the kit's instructions and extending each of the two 60° C. conversion incubations to 20 minutes. Converted DNA was purified without addition of an RNA carrier to the binding buffer. Biotinylated ligation junctions in purified bisulfite-converted DNA were captured on 15 μl C1 streptavidin beads (Thermo Fisher) in denaturing binding buffer (10 mM Tris pH 7.5; 5 mM EDTA; 500 mM LiCl; 0.5% Igepal CA630; 0.2% SDS; 4 M Urea) for 10 minutes at 55° C. DNA was washed twice with binding buffer at 55° C. and once with 10 mM Tris. […]
Methylation Track Generation with MethylDackel: Duplicate Hi-C contacts were marked as duplicates in the methylation BAM. Applicants then called the program Methyl Dackel extract with the flag “-F 1024”; this ignored duplicates reads but kept all other mapped reads with MAPQ ≥10. […]

GM12878 cells = assay: Hi-Culfite on GM12878 cells treated with 5-azacytidine (methylation inhibition experiment); type: cell-based, human; details: for CpG C->T conversion: DMSO control 45.37%
Description: as §1, §2, §3
DNA for Hi-Culfite was first treated with sodium bisulfite using EpiTect Fast bisulfite conversion kit (Qiagen) following the kit's instructions and extending each of the two 60° C. conversion incubations to 20 minutes. Converted DNA was purified without addition of an RNA carrier to the binding buffer. Biotinylated ligation junctions in purified bisulfite-converted DNA were captured on 15 μl C1 streptavidin beads (Thermo Fisher) in denaturing binding buffer (10 mM Tris pH 7.5; 5 mM EDTA; 500 mM LiCl; 0.5% Igepal CA630; 0.2% SDS; 4 M Urea) for 10 minutes at 55° C. DNA was washed twice with binding buffer at 55° C. and once with 10 mM Tris. Beads were resuspended in 15 μl of 10 mM Tris, and libraries were detached from the beads by heating for 5 minutes at 95° C. After separating on a magnet, library construction for Illumina sequencing was performed on the supernatant containing ssDNA library using Accel-NGS Methyl-Seq kit (Swift Biosciences) following the kit's manual.
Methylation Track Generation with MethylDackel: Duplicate Hi-C contacts were marked as duplicates in the methylation BAM. Applicants then called the program Methyl Dackel extract with the flag “-F 1024”; this ignored duplicates reads but kept all other mapped reads with MAPQ ≥10. MethylDackel generated CpG methylation tracks, a cytosine coverage report, and an input file for the analysis program MethylKit26. […]

Nc1ncn([C@@H]2O[C@H](CO)[C@@H](O)[C@H]2O)c(=O)n1 [5-azacytidine]
impact on nuclear architecture / chromosome-level nuclear organization (contact maps, eigenvectors) (Hap1 cells; Hap1, 1 uM and 5 uM, 8 days, vs DMSO): did not discern an impact on nuclear architecture; also recorded: no effect on chromosome-level nuclear organization | CpG C->T conversion (Hap1 cells; Hap-1, 1 μM 5-azacytidine in DMSO, 8 days): 86.16% | CpG C->T conversion (Hap1 cells; Hap-1, 5 μM 5-azacytidine in DMSO, 8 days): 85.79% | genome-wide decline of methylation (on average) (Hap1 cells; HapI treated with 5-azacytidine, average stated jointly for GM12878 and HapI): 2 fold | looping signal by Aggregate Peak Analysis (Hap1 cells; HapI, increasing 5-azacytidine concentration): no significant changes in looping signal | CpG C->T conversion (GM12878 cells; GM12878, 1 μM 5-azacytidine in DMSO, 8 days): 69.46% | impact on nuclear architecture / chromosome-level nuclear organization (contact maps, eigenvectors) (GM12878 cells; GM12878, 1 uM and 5 uM, 8 days, vs DMSO): did not discern an impact on nuclear architecture; also recorded: no effect on chromosome-level nuclear organization | CpG C->T conversion (GM12878 cells; GM12878, 5 μM 5-azacytidine in DMSO, 8 days): 75.08% | looping signal by Aggregate Peak Analysis (GM12878 cells; GM12878, increasing 5-azacytidine concentration): no significant changes in looping signal | genome-wide decline of methylation (on average) (GM12878 cells; GM12878 treated with 5-azacytidine, average stated jointly for GM12878 and HapI): 2 fold | nucleosome occupancy and directional methylation asymmetry at CTCF motifs (aggregate methylation analysis) (GM12878 cells; increasing concentration of 5-azacytidine, GM12878 CTCF motifs): no changes to nucleosome occupancy and directional methylation asymmetry
